The text below walks through data of US20250326708A1, “LONG-ACTING SPLEEN-TARGETING CATIONIC LIPID COMPOUND COMPRISING BENZENE RING STRUCTURE, COMPOSITION COMPRISING SAME, AND USE THEREOF” (Beijing Youcarekechuang Pharmaceutical Technology Co., Ltd., priority 2024, published 2025).

Series [1] has as its system 293T cells. The experiment in a line: Cell viability assay (CCK-8) with LNP preparations of Fluc-mRNA. The class given is cell-based. Particulars: LNP with 1.5 μg Fluc-mRNA, 24 hours, CCK-8. The method, then: (§1) Cell recovery and passage: 293T cells were recovered and cultured in culture dishes. The cells were passaged until the required number of cells was obtained.
(§2) Seeding plates: The cells in culture dishes were digested and counted, then seeded in a 96-well plate at 10,000 cells per well and seeded in a 12-well plate at 150,000 cells per well. The cells were cultured overnight until cell adhesion.
(§3) The cationic lipids listed in Table 2 were each mixed with DSPC (AVT (Shanghai) Pharmaceutical Technology Co., Ltd.), cholesterol (AVT (Shanghai) Pharmaceutical Technology Co., Ltd.), and DMG-PEG2000 in a molar ratio of 49:10:39.5:1.5 and dissolved in ethanol to prepare ethanol lipid solutions. Using the ethanol injection method, the ethanol lipid solutions were quickly added to a citrate buffer (pH between 4 and 5), and vortexed for 30 seconds for later use. eGFP-mRNA (purchased from Shanghai BioHub Biotechnology Co., Ltd.), Fluc-mRNA (purchased from Shanghai BioHub Biotechnology Co., Ltd.), or Cy5 fluorescently labeled Leqvio (purchased from Sangon Biotech (Shanghai) Co., Ltd.) was diluted in a citrate buffer (pH between 4 and 5) to obtain an mRNA aqueous solution. A certain volume of the lipid solution and the mRNA aqueous solution were mixed to prepare liposomes at a total lipid-to-mRNA weight ratio of 15:1. The mixtures were sonicated at 25° C. for 15 minutes (ultrasonic frequency: 40 kHz, ultrasonic power: 800 W). The resulting liposomes were diluted 10-fold with PBS, followed by ultrafiltration using a 300 kDa ultrafiltration tube to remove ethanol. After adjusting the volume with PBS, LNP preparations encapsulating eGFP-mRNA or Fluc-mRNA were obtained, using cationic lipids, DSPC, cholesterol, and DMG-PEG2000 at a molar ratio of 49:10:39.5:1.5.
(§4) Cell recovery and passage: The method was the same as described in Example 3.
(§5) Seeding plates: The method was the same as described in Example 3.
LNP preparations containing 1.5 μg of Fluc-mRNA (with the vector components of the LNP preparations of cationic lipids, DSPC, cholesterol, and DMG-PEG2000 in a molar ratio of 49:10:39.5:1.5, where the cationic lipids are those listed in Table 1) were added to the cell culture medium in a 96-well plate. After 24 hours of continued culture, 10 μL of CCK-8 solution was added to each well, and the culture plate was incubated in an incubator for 1 hour.

The nature of series [2]: Particle size and polydispersity index (PDI) of lipid nanoparticles, dynamic light scattering. Particulars: LNP preparation with the named cationic lipid; 90° scattering angle, 25° C. In kind it is physicochemical.
Description: as §3
The particle size and polydispersity index (PDI) were measured using dynamic light scattering with a Malvern laser diffraction particle size analyzer.
10 μL of liposome solution was diluted to 1 mL with RNase-free deionized water and added to the sample cell. Each sample was measured three times. The measurement conditions were as follows: 90° scattering angle, 25° C.

For series [3], the system named is 293T cells. The experiment in a line: Fluorescence detection of Fluc-mRNA (transfection efficiency) of LNP preparations. Particulars: for Relative light unit (RLU): LNP with 0.3 μg Fluc-mRNA, 96-well plate, 24 hours. The class given is cell-based. The method, then: as §1, §2, §3, §4, §5
LNP preparations containing 0.3 μg of Fluc-mRNA (with the vector components of the LNP preparations of cationic lipids, DSPC, cholesterol, and DMG-PEG2000 in a molar ratio of 49:10:39.5:1.5, where the cationic lipids are those listed in Table 1) were added to the cell culture medium in a 96-well plate. After 24 hours of continued culture, the corresponding reagents were added according to the instructions in the Gaussia Luciferase Assay Kit. Fluorescence intensity in each well was detected using the IVIS fluorescence detection system. The transfection efficiency of LNP preparations prepared with a series of cationic lipid compounds designed in the present disclosure, as well as cationic lipids from the prior art, including SM-102, HHMA, MC3, compound 7, and I-1, is shown in Table 4.

Compound `CCCCCCCCCCCCC(O)CN(C)CCCCCC(=O)OCC(CCCCCC)CCCCCCCC` (stereo not drawn) [HHMA, reference compound] showed a Cell viability in series [1] of 77%. In series [2], this compound yielded a PDI of 16.3% and a Particle size of 146 nm. Moreover, the “Relative light unit (RLU)” value in series [3] is listed as 1011156 RLU.

In the case of `CCCCCCCCC(CCCCCC)COC(=O)CCCCCN(CCCCCC(=O)OCC(CCCCCC)CCCCCCCC)CCCCC(=O)OCc1ccccc1.I` (stereo not drawn) [I-1, bis(2-hexyldecyl) 6,6′-((5-(benzyloxy)-5-oxopentyl)azanediyl)dihexanoate, reference compound], in series [1], the Cell viability amounted to 68%. Besides, in series [2], the PDI is 16.2% and the Particle size amounted to 158 nm. For the same compound, the “Relative light unit (RLU)” value in series [3] was 202730 RLU.

Compound `CCCCC/C=C\C/C=C\CCCCCCCCC(CCCCCCCC/C=C\C/C=C\CCCCC)OC(=O)CCCN(C)C` [MC3, reference compound] yielded a Cell viability in series [1] of 74%. In series [2], this compound yielded a PDI of 15.7% and a Particle size of 151 nm. The “Relative light unit (RLU)” value in series [3] is 94904 RLU.

`CCCCCCCCCCC(CCCCCCCCCC)CCCOC(=O)CCCCCNC(CO)(CO)CCc1ccc(CCCCCCCC)cc1` [YK-901, 4-decyltetradecyl 6-((1-hydroxy-2-(hydroxymethyl)-4-(4-octylphenyl)butan-2-yl)amino) hexanoate]: in series [1], the Cell viability is on record as 58%. In series [2], this compound yielded a PDI of 17.4% and a Particle size of 162 nm. For the same compound, the “Relative light unit (RLU)” value in series [3] came out at 43423 RLU.

As for `CCCCCCCCCCC(CCCCCCCCCC)CCCOC(=O)CCCNC(CO)(CO)CCc1ccc(CCCCCCCC)cc1` [YK-902, 4-decyltetradecyl 4-((1-hydroxy-2-(hydroxymethyl)-4-(4-octylphenyl)butan-2-yl)amino) butanoate], the Cell viability in series [1] is listed as 36%. In series [2], the PDI was found to be 12.4% and the Particle size was found to be 142 nm. Besides, the “Cellular transfection efficiency, times that of HHMA” value in series [3] (Fluc-mRNA LNP, vs HHMA) was found to be 0.31 times. The “Cellular transfection efficiency, times that of I-1” value in series [3] (Fluc-mRNA LNP, vs I-1) is given as 1.53 times. Besides, the “Cellular transfection efficiency, times that of MC3” value in series [3] (Fluc-mRNA LNP, vs MC3) was found to be 3.28 times. In series [3] (Fluc-mRNA LNP, vs SM-102), the “Cellular transfection efficiency, times that of SM-102” value is reported as 0.22 times. Moreover, in series [3] (Fluc-mRNA LNP, vs YK-501), the “Cellular transfection efficiency, times that of YK-501” value is 6.73 times. For the same compound, in series [3] (Fluc-mRNA LNP, vs YK-506), the “Cellular transfection efficiency, times that of YK-506” value is 0.48 times. The “Cellular transfection efficiency, times that of compound 7” value in series [3] (Fluc-mRNA LNP, vs compound 7) is given as 1.21 times. In series [3], the “Relative light unit (RLU)” value is reported as 311132 RLU.

For `CCCCCCCCCCOC(=O)CCCNC(CO)(CO)CCc1ccc(CCCCCCCC)cc1` [YK-903, decyl 4-((1-hydroxy-2-(hydroxymethyl)-4-(4-octylphenyl)butan-2-yl)amino) butanoate], the Cell viability in series [1] was determined as 47%. In series [2], this compound displayed a PDI of 15.1% and a Particle size of 152 nm. For the same compound, the “Relative light unit (RLU)” value in series [3] came out at 25006 RLU.

`CCCCCCCCCCCOC(=O)CCCCCNC(CO)(CO)CCc1ccc(CCCCCCCC)cc1` [YK-905, undecyl 6-((1-hydroxy-2-(hydroxymethyl)-4-(4-octylphenyl)butan-2-yl)amino) hexanoate] registered a Cell viability in series [1] of 51%. In series [2], this compound had a PDI of 16.9% and a Particle size of 135 nm. Besides, the “Relative light unit (RLU)” value in series [3] was 72425 RLU.

Consider `CCCCCCCCCCOC(=O)CCCN(CCCCCC(=O)OCC(CCCCCCCC)CCCCCCCC)CCNC(CO)(CO)CCc1ccc(CCCCCCCC)cc1` [YK-906, 2-octyldecyl 6-((4-(decyloxy)-4-oxobutyl) (2-((1-hydroxy-2-(hydroxymethyl)-4-(4-octylphenyl)butan-2-yl)amino)ethyl)amino) hexanoate], for which the Cell viability in series [1] was found to be 63%. Moreover, in series [2], the PDI stood at 10.2% and the Particle size is on record as 124 nm. The “Relative light unit (RLU)” value in series [3] is listed as 27546 RLU.
